In the case of `CN/C(=C(/C#N)C(=O)c1ccc(Cl)cc1)c1ccc(Cl)cc1` [Example 3, 2-(4-chlorobenzoyl)-3-(4-chlorophenyl)-3-(N-methylamino)-propenonitrile], the melting point was 182 °C.

Molecule `C/C(NC1CC1)=C(\C#N)C(=S)c1ccc(Cl)cc1` [Example 8, 2-[(4-chlorophenyl)-thiocarbonyl]-3-(N-cyclopropylamino)-crotononitrile] had a melting point of 215 °C.

As a reminder, the melting point is the temperature of the solid-liquid transition.
